These results are taken from patent US20250122155A1, “NOVEL INDOLE DERIVATIVE, PHARMACEUTICAL COMPOSITION COMPRISING SAME, AND USE THEREOF” (MITOIMMUNE THERAPEUTICS INC., priority 2021, published 2025).

The structures appear in SMILES notation. Read-outs that look alike come from different tables or passages of the source. A value given as a limit tells only on which side of the number the result lay.

The test system of series [1] is H9C2 cells. The series is described as follows: Protective effect on heart cells against t-BHP (LDH release). Particulars: H9C2, t-BHP 400 μM, 2 hours, read-out: EC50 (μM), Cell Protection Effect against t-BHP in Heart Cells. Type of series: cell-based. The procedure:
In order to identify the protective effect with regard to heart cells, H9C2 cells were divided into 96-well plates by 1.5×10^4, and cultured for 24 hours. The respective wells were treated with compounds of the examples 3× serial diluted to final concentrations of 30, 10, 3, 1, 0.3, 0.1, 0.03 and 0.01 μM, then incubated for 15 to 20 minutes. After treating with t-BHP with a final concentration of 400 μM, incubation was performed for 2 hours. To confirm the protective effect of each compound, a Cytotoxicity LDH assay kit [Dojindo; CK12] was used to measure the degree of extracellular secretion of LDH. After 2-hour treatment of the cells with t-BHP was completed, 100 μL each of the supernatant in which the cells were placed was collected and moved to a new 96-well plate. 100 μL/well of the assay buffer included in the kit (same amount as the sample) was added, followed by wrapping with foil and reacting for 30 minutes at room temperature. Observing the change of color in the sample, 50 μL/well of stop solution was added, then an iD3 spectrometer was used to measure absorbance at 490 nm and calculate the EC50 values. The EC50 of the compounds of the examples is preferably no more than 1.0 μM, and more preferably no more than 0.3 μM.
(Release of lactate dehydrogenase indicates damage to the cell membrane.)

A short description of series [2]: Plasma and brain drug concentration after oral administration (HPLC-MS/MS). Type of series: in vivo. The procedure:
[…] parameters can be represented as maximum concentration in plasma (Cmax), time taken until maximum concentration in plasma (Tmax), area under the plasma concentration-time curve (AUClast and AUCinf), and half-life (t1/2), and the like.
The compound of Example 2 was orally administered to ICR mice at a dose of 10 mg/kg, and drug concentration in mouse plasma was measured using HPLC-MS/MS spectroscopy at 0.5, 1, 2, 4, 8 and 24 hours. The mouse brains were removed at 2 or 24 hours, and drug concentration in the brain was measured using HPLC-MS/MS spectroscopy. The area under the plasma concentration v. time curve (AUCinf) was measured to be […], and at 2 hours after administration drug concentration in plasma was 398 ng/mL and brain drug concentration was measured at 683 ng/mL. […] Further, at 24 hours after administration, for Example 2, drug concentration in plasma was measured to be 5.6 ng/mL and drug concentration in the brain was measured at 11.4 ng/mL. With the brain-plasma drug concentration ratio at 2.04, drug exposure in the brain was still high.
The Comparative Example compound was orally administered to ICR mice at a dose of 10 mg/kg, and drug concentration in mouse plasma was measured using HPLC-MS/MS spectroscopy at 0.5, 1, 2, 4, 8 and 24 hours. The mouse brains were removed at 2 or 24 hours, and drug concentration in the brain was measured using HPLC-MS/MS spectroscopy.

Series [3] has as its system H9C2 cells. The series is described as follows: Maintenance of intracellular calcium level in heart cells treated with t-BHP (FLIPR Calcium 6). Type of series: cell-based, rat. The note with it: H9C2, t-BHP 150 μM. The protocol: To examine the maintenance effect on calcium level in heart cells, H9C2 cells were divided into a 96-well plate at 1.5×10^4 cells/well and cultured for 24 hours. To measure intracellular calcium level, a FLIPR Calcium 6 assay kit (Molecular devices; #R8190) was used. Following the experimental method provided by the manufacturer, cells were treated with probenecid and calcium-sensitive dye for 1.75 hours, and then the cells were treated with the compound of Example 2 for 0.25 hours (the final concentration of the compound was 0.02 or 0.01 μM). And the cells were treated with t-BHP to a final concentration of 150 μM, then intracellular calcium level was measured every 30 seconds in real time.
FIG. 1 is a graph regarding the regulatory effect of the compound of Example 2 on calcium level under t-BHP treatment. The ΔF/F(Max−Min) value on the vertical axis is the difference between the maximum and minimum fluorescence intensity values of the calcium-sensitive dye after treatment with t-BHP (150 μM), and this value increases as intracellular calcium level increases.
(In general: A change in cytosolic calcium serves as a functional read-out for many receptors and channels.)

Where [4] appears, read: ICR mouse, oral 10 mg/kg, 2 hr, 10 mg/kg.

With `COCCOCc1cc(NC2CCCC2)c2[nH]c(-c3ccccc3)cc2c1` [Example 2, N-cyclopentyl-5-(2-methoxyethoxymethyl)-2-phenyl-1H-indol-7-amine], in the series with H9C2 cells [1], the half-maximal effective concentration (EC50) is at most 0.3 µM. Also, in series [2] (ICR mouse, oral 10 mg/kg), the “AUClast, brain” value came out at 8319.0 ng·h/g. For the same compound, the “drug concentration in brain” value in series [2] (setting [4]) came out at 0.6828 µg/mL. In addition, in series [2] (setting [4]), the “drug concentration in plasma” value was determined as 0.3982 µg/mL. For the same compound, in series [2] (ICR mouse, oral 10 mg/kg, plasma, read-out: area under the plasma concentration v. time curve (AUCinf)), the AUC(0-inf) is 5.42 µg·h/mL. The concentration at 2 h in series [2] (ICR, mouse, brain, po, 10 mg/kg, 2 hr, read-out: drug concentration in brain) amounted to 0.683 µg/mL; in series [2] (ICR, mouse, plasma, po, 10 mg/kg, 2 hr, read-out: drug concentration in plasma), 0.398 µg/mL. The concentration at 24 h in series [2] (ICR, mouse, brain, po, 10 mg/kg, 24 hr, read-out: drug concentration in brain) came to 0.0114 µg/mL; in series [2] (ICR, mouse, plasma, po, 10 mg/kg, 24 hr, read-out: drug concentration in plasma) it was 0.0056 µg/mL. In series [2] (ICR, mouse, plasma, po, 10 mg/kg, 0.5 hr), this compound had a concentration at 0.5 h of 0.334 µg/mL. Moreover, in series [2] (ICR, mouse, plasma, po, 10 mg/kg, 1 hr), the concentration at 1 h turned out to be 0.337 µg/mL. This compound also gave a concentration at 4 h in series [2] (ICR, mouse, plasma, po, 10 mg/kg, 4 hr) of 0.671 µg/mL. In series [2] (ICR, mouse, plasma, po, 10 mg/kg, 8 hr), the concentration at 8 h was 0.232 µg/mL. For the same compound, the AUC(0-t) in series [2] (ICR, mouse, plasma, po, 10 mg/kg, plasma, read-out: area under the plasma concentration v. time curve (AUClast)) is 5.4 µg·h/mL; in series [2] (ICR, mouse, plasma, po, 10 mg/kg, read-out: AUClast, plasma), 5.4 µg·h/mL. For the same compound, the Kp at 2 h in series [2] (brain/plasma, ICR mouse, oral 10 mg/kg, 2 hr, read-out: brain-plasma drug concentration ratio (B/P ratio)) came to 1.71. The Kp at 24 h in series [2] (brain/plasma, ICR mouse, oral 10 mg/kg, 24 hr, read-out: brain-plasma drug concentration ratio (B/P ratio)) was determined as 2.04. In addition, in series [2] (brain/plasma, ICR mouse, oral 10 mg/kg, read-out: B/P ratio of AUClast), the Kp worked out at 1.74. In addition, the “intracellular calcium level, ΔF/F(Max−Min)” value in the series on H9C2 cells [3] (compound 0.01 μM) is “significantly decreased”; with H9C2 cells [3] (compound 0.02 μM), “within normal range”.

Broadly, the EC50 is the concentration giving half of the maximal effect.
